Tests used:
α1 receptors = assay: Affinity for α1 receptors of rats, competition with [^3 H]-prazosin; assay type: binding; conditions: frontal cortex of rat, 25° C.
Description: The radioactivity retained on the filters is determined by liquid scintillation counting. The binding isotherms are analysed by non-linear regression using `PRISM` software (GraphPad Software Inc., S. Diego, USA) to determine IC50 values.

[1] = biological target: T1, post-synaptic 5-HT1A receptors (Rattus norvegicus, UniProt P19327); assay: Body temperature test in rats; assay type: in vivo
T1 construct: Body Temperature Test in Rats (post-synaptic 5-HT1A receptors); from tissue; host or cells: living rat (whole animal)
T1 sequence (P19327 1-422): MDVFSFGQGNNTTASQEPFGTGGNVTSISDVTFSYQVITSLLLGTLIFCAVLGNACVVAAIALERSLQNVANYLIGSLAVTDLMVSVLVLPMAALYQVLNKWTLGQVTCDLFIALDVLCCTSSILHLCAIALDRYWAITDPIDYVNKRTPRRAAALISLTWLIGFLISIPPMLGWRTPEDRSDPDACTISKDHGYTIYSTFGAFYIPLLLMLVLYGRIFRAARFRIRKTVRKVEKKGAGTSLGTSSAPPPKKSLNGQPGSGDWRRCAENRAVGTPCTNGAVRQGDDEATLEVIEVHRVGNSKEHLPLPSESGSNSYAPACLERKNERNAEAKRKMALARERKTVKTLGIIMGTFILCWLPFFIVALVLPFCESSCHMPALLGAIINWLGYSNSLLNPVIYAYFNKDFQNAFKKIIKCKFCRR
Text: 2. Body Temperature Test in Rats (post-synaptic 5-HT1A receptors)
That effect is reversed by 5-HT1A antagonists,as has been shown by M. J. Millan (J. Pharmacol. Exp. Ther., 1993, 264, 1346-1376). According to the protocol described by that author, compounds of the invention which when administered on their own bring about a decrease in body temperature will be identified as post-synaptic 5-HT1A serotoninergic agonists. On the other hand, compounds of the invention that reverse the hypothermia induced by the prototypical 5-HT1A agonist 8-OH-DPAT will be identified as post-synaptic 5-HT1A antagonists.

[2] = biological target: T2, pre-synaptic 5-HT1A receptors (Rattus norvegicus, UniProt P19327); assay: In vivo recording of unitary extracellular electrical activity in the dorsal nucleus of the raphe in rats
T2 construct: in the Dorsal Nucleus of the Raphe in Rats (pre-synaptic 5-HT1A receptors); from tissue; host or cells: living anaesthetised rat, serotoninergic neurons of the dorsal nucleus of the raphe
T2 sequence (P19327 1-422): T1 sequence (P19327 1-422)
Description: 1. "In Vivo" Recording of Unitary Extracellular Electrical Activity in the Dorsal Nucleus of the Raphe in Rats (pre-synaptic 5-HT1A receptors)
The administration of a 5-HT1A serotoninergic agonist decreases the discharge frequency of neurons in a dose-dependant manner. That effect is reversed by the selective 5-HT1A antagonist, WAY 100,635.
The rats are anaesthetised with chloral hydrate (400 mg/kg, i.p.) and placed in a stereotaxis apparatus (Unimecanique, France) after catheterisation of the femoral vein. The level of anaesthesia is maintained by i.p. administration of chloral hydrate every hour; the rectal temperature is maintained at 37±1° C. by means of a thermostatically controlled heated cover. A tungsten microelectrode (10 M.OMEGA., 1 μM) is inserted using an electronic microinsertion device (Unimecanique, France) into the dorsal nucleus of the raphe (AP: -7.8/bregma; L: 0.0; H: 5.0-6.5/dura; Paxinos and Watson Atlas, 1986). The potentials of the serotoninergic cells are characterised by their morphology (positive/negative biphase potentials, of a duration of less than 2.5 msec) and their slow and regular discharge rhythm of from 0.5 to 2.5 Hz. A single cell per animal is recorded.
After a period of ≥5 min (basal activity) and a first injection of carrier (distilled water to which a few drops of dilute lactic acid have been added, pH adjusted to 5 with 1N NaOH), the compound of the invention is administered intravenously in cumulatively increasing doses at intervals of 5 minutes.
Acquisition of the data is effected by the software Spike2 (Cambridge Electronic Design, England). The discharge frequency is measured over one minute at the maximum variation between each injection and is expressed as a percentage variation in relation to the basal activity (average of the 5 minutes preceding the first treatment) defined as 100%. The ID50 is calculated using a simple linear regression method with repeated measurements.

[3] = Ultrasonic vocalisation test in rats; assay type: in vivo, Male Wistar rats; conditions: for duration of the ultrasonic vocalisations: mean ± s.e.m.
Text: 3. Ultrasonic Vocalisation Test in Rats
When a rat is placed in an environment previously associated with an unpleasant experience (electric shocks to the paws), its anxiety is shown by the emission of inaudible cries (or ultrasonic vocalisations).
Standard cages (Coulbourn Instruments), placed in sound-absorbing ventilated boxes, are fitted with a floor composed of electrifiable metal bars (shock generator and scrambler Med Associates Inc) and with a microphone located in the centre of the ceiling. The ultrasonic noises are converted into an audible range (bat-detector Buitenbedrijf). The signals modified in that manner are filtered and then processed (RTS software, Engineering Design). The spectrograms obtained are recorded on DAT tapes.
Male Wistar rats weighing 180-200 g on their arrival are placed in cages of four with free access to water and food from five days before the start of the study until the end of the study. The procedure employed is divided into three successive stages separated by 24 hours, called training, selection and test. During the training period, the animals are placed individually into cages where they receive six electric shocks (0.8 mA, 8 s) distributed randomly over a period of seven minutes. Selection comprises placing each animal in a cage for two minutes where it receives a single shock and putting it back in the cage thirty minutes later to record the ultrasonic vocalisations for a period of ten minutes; those animals in which the duration of the vocalisations is less than 90 seconds are excluded from the remainder of the experiment. The test phase proceeds in a similar manner to the selection stage, except that the compounds or the carrier are administered at the end of the two-minute period.

human 5-HT1A receptor = biological target: T3, human 5-HT1A receptor (Homo sapiens, UniProt P08908); assay: Affinity for human h5-HT1A receptors, competition with [^3 H]-8-OH-DPAT; assay type: binding
T3 construct: expressed in transfected cells; host or cells: CHO cells (membranes)
T3 sequence (P08908 1-422): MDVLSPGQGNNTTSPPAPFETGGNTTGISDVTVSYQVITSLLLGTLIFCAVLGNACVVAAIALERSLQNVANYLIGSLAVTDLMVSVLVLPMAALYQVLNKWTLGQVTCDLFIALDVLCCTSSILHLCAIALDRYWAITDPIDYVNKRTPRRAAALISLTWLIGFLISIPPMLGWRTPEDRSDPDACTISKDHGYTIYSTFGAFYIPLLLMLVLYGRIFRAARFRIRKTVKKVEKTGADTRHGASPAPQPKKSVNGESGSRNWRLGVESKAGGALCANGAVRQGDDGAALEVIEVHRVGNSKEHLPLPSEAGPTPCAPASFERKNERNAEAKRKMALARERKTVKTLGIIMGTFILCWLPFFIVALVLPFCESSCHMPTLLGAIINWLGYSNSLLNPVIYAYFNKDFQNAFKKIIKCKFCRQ
Description: The radioactivity retained on the filters is determined by liquid scintillation counting.

[4] = biological target: T1, post-synaptic 5-HT1A receptors; conditions: M. J. Millan, 1993; cited from earlier work

Row | Ki (α1 receptors) | ED50 ([1]; sc, read-out: ID50 (reversal of the effects of 8-OH-DPAT, hypothermia)) | discharge frequency, percentage in relation to the basal activity (100%) ([2]; 0.25 μg/kg i.v., n = 3, mean ± standard error of the mean) | discharge frequency, percentage in relation to the basal activity (100%) ([2]; 0.5 μg/kg i.v., n = 3, mean ± standard error of the mean) | discharge frequency, percentage in relation to the basal activity (100%) ([2]; 1 μg/kg i.v., n = 3, mean ± standard error of the mean) | ED50 ([2]; intravenous, rat dorsal raphe, read-out: ID50 (decrease of discharge frequency)) | discharge frequency, percentage in relation to the basal activity (100%), after WAY 100,635 ([2]; reversal by WAY 100,635 31 μg/kg after cumulative Example 6 doses, n = 3, mean ± standard error of the mean) | Ki (human 5-HT1A receptor) | Compound | character at post-synaptic 5-HT1A receptors ([1]; post-synaptic, s.c.) | character at pre-synaptic 5-HT1A receptors ([2]; pre-synaptic, rat, i.v.) | duration of the ultrasonic vocalisations ([3]; 0.04 mg/kg s.c., n = 6) | duration of the ultrasonic vocalisations ([3]; 0.16 mg/kg s.c., n = 3, ** p < 0.01 vs carrier (Dunnett test)) | duration of the ultrasonic vocalisations ([3]; 2.5 mg/kg s.c., n = 5, ** p < 0.01 vs carrier (Dunnett test)) | effect on duration of the vocalisations (anxiolytic activity) ([3]; 0.16 and 2.5 mg/kg s.c.) | effect on body temperature [4]
1 | 932 nM | 1.3 mg/kg | 73.84% | 52.23% | 36.16% | 0.00059 mg/kg | 140.48% | 1.73 nM | O[C@@H]1c2ccccc2C[C@H]1N1CCN(c2cccc3c2OCCO3)CC1 (relative stereo) [Example 6, Trans-2-[4-(2,3-dihydro[1,4]benzodioxin-5-yl)piperazin-1-yl]indan-1-ol] | behaves like a post-synaptic 5-HT1A serotoninergic antagonist | behaves like a 5-HT1A serotoninergic agonist at the pre-synaptic level | 170 ± 62 s | 28 ± 14 s | 8 ± 8 s | brings about a reduction in the duration of the vocalisations, indicating its anxiolytic activity | 
2 |  |  |  |  |  |  |  |  | CCCN(CCC)C1CCc2cccc(O)c2C1 (stereo not drawn) [Example 8-OH-DPAT] |  |  |  |  |  |  | brings about a decrease in body temperature in a dose-dependent manner
